Assay results from patent US20020119506A1, “Genes encoding UMP kinase, methods for purifying UMP kinase and methods of characterizing UMP kinase” (INSTITUT PASTEUR, priority 2000, published 2002).
Entries after “also recorded” stand apart in the source; their conditions may differ. Where two headings read alike, the source gives them in different places.

Key:
[1] = biological target: T1, UMP kinase from B. subtilis (Bacillus subtilis, UniProt O31749); test: UMP kinase activity, coupled spectrophotometric assay; type: biochemical
T1 sequence (O31749 1-240): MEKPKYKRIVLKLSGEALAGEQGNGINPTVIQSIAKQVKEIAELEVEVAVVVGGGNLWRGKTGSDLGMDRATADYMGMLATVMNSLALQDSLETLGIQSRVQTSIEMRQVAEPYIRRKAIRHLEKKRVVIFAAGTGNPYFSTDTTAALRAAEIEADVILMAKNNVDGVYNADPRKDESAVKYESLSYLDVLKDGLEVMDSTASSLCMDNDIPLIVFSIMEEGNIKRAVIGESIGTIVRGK
Method: Purification of UMP kinase and activity assays. E. coli overproducing the UMP kinase from B. subtilis was disrupted by sonication in 50 mM Tris-HCl (pH 7.4) and 2 mM UTP. The bacterial extract was heated for 10 min at 65° C., then the precipitated proteins were removed by centrifugation at 10,000 g for 30 min. The supernatant was concentrated by ultrafiltration to about 10 mg of protein/ml, then applied to a Sephacryl S-300 HR column (2.5×110 cm) equilibrated with 50 mM Tris-HCl (pH 7.4), 0.1 M NaCl and 2 mM UTP at a flow rate of 10 ml/h. […] Fractions of 1 ml of protein solution were sampled in Eppendorf tubes and stored at different temperatures between 20° C. and −80° C. The UMP kinase activity was determined at 30° C. using a coupled spectrophotometric assay (0.5 ml final volume) on an Eppendorf PCP6121 photometer [Blondin, 1994 #977]. The “standard” reaction medium contained 50 mM Tris-HCl (pH 7.4), 50 mM KCl, 2 mM MgCl2, 1 mM phosphoenolpyruvate, 0.2 mM NADH, 2 mM ATP, 0.5 mM GTP and 2 units each of lactate dehydrogenase, pyruvate kinase and NDP kinase. The crude or pure preparation of UMP kinase was then added, followed two minutes later by 1.3 mM UMP. The decrease in absorbance at 334 nm (between 0.03 and 0.3/min) was then recorded and corrected for secondary reactions, occurring in the absence of UMP. One unit of UMP kinase corresponds to 1 μmol of product formed per min.
The UMP kinase activity was determined at 30° C. using a coupled spectrophotometric assay (0.5 ml final volume) on an Eppendorf PCP6121 photometer. The “standard” reaction medium contained 50 mM Tris-HCl (pH 7.4), 50 mM KCl, 2 mM MgCl2, 1 mM phosphoenolpyruvate, 0.2 mM NADH, 1 or 2 mM ATP, 0.5 mM GTP and 2 units each of lactate dehydrogenase, pyruvate kinase and NDP kinase. The pure preparation of UMP kinase was then added, followed by 0.3 or 1 mM UMP. The decrease in absorbance at 334 nm (between 0.03 and 0.3/min) was then recorded and corrected for secondary reactions occurring in the absence of UMP. One unit of UMP kinase corresponds to 1 μmol of product formed per min.

[2] = biological target: T1, UMP kinase from B. subtilis; details: for stabilization of UMP kinase activity on storage (in words): crude bacterial extract, UTP ≧2 mM, ATP and GTP 2 mM each, various temperatures
[3] = biological target: T1, UMP kinase from B. subtilis; test: Thermal stability of UMP kinase (FIG. 1)
Method: UMP kinase from B. subtilis overproduced in strain BL21 (DE3)/pDIA17 (over 30% of total E. coli proteins) was recovered in the supernatant after cell breakage in 50 mM Tris-HCl (pH 7.4) and centrifugation. The activity of recombinant UMP kinase declined rapidly upon storage at either room temperature, +4° C. or under frozen state. After 24 h, only 15% of initial UMP kinase activity was recovered. EDTA, thiols, bovine serum albumin, or antiprotease compounds alone or in mixture were ineffective. […] UTP increased the thermal stability of bacterial UMP kinase (FIG. 1), the half maximal inactivation being shifted from 42° C. in the absence of UTP to over 70° C. in the presence of nucleotide.

[4] = biological target: T2, UMP kinase from M. tuberculosis (Mycobacterium tuberculosis, UniProt P9WHK5); details: in the presence of UTP
T2 sequence (P9WHK5 whole entry): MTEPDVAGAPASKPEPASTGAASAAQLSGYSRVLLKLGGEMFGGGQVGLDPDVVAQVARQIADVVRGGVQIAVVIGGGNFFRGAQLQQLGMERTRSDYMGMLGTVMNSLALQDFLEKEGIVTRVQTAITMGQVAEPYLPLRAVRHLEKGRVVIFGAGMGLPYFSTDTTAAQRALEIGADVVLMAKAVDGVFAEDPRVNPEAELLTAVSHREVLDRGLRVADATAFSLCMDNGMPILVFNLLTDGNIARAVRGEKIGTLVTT

[5] = biological target: E. coli UMP kinase (Escherichia coli, UniProt P0A7E9); details: cited from earlier work
[6] = biological target: UMP kinase from H. influenzae (Haemophilus influenzae, UniProt P43890); test: UMP kinase activity, coupled spectrophotometric assay; type: biochemical
UMP kinase from H. influenzae, sequence (P43890 whole entry): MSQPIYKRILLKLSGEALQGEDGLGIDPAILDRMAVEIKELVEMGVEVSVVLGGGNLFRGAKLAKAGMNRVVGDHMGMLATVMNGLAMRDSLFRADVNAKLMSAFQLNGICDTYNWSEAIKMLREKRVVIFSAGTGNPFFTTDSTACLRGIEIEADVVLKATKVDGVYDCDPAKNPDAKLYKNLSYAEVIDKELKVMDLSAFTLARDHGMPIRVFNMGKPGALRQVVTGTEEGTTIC
Method: The UMP kinase activity was determined at 30° C. using a coupled spectrophotometric assay (0.5 ml final volume) on an Eppendorf PCP6121 photometer. The “standard” reaction medium contained 50 mM Tris-HCl (pH 7.4), 50 mM KCl, 2 mM MgCl2, 1 mM phosphoenolpyruvate, 0.2 mM NADH, 1 or 2 mM ATP, 0.5 mM GTP and 2 units each of lactate dehydrogenase, pyruvate kinase and NDP kinase. The pure preparation of UMP kinase was then added, followed by 0.3 or 1 mM UMP. The decrease in absorbance at 334 nm (between 0.03 and 0.3/min) was then recorded and corrected for secondary reactions occurring in the absence of UMP. One unit of UMP kinase corresponds to 1 μmol of product formed per min. The specific activities of the recombinant enzymes are the following: […]

[7] = biological target: T2, UMP kinase from M. tuberculosis; type: biochemical
[8] = biological target: T3, E. coli UMP kinase (Escherichia coli, UniProt P0A7E9); test: UMP kinase activity and activation by guanine nucleotides (comparison enzyme); type: biochemical; details: under identical conditions (presence of GTP)
T3 sequence (P0A7E9 whole entry, looked up): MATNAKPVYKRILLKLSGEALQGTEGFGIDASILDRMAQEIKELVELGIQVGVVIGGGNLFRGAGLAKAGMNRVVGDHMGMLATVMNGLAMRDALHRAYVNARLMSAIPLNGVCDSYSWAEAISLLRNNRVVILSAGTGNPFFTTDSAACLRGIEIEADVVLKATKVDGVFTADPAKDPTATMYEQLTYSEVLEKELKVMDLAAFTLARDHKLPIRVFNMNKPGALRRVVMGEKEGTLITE

In the case of `Nc1nc2c(ncn2[C@H]2C[C@H](O)[C@@H](COP(=O)(O)OP(=O)(O)OP(=O)(O)O)O2)c(=O)[nH]1` [dGTP], the “activation of UMP kinase by guanine nucleotides (in words)” value (from here on “activation of UMP kinase … (in words)”) [1] is reported as “effective but with lower affinities and extent of activation; also recorded: can activate at significant rates”.

In the case of “bovine serum albumin: protein additive tested as stabilizer”, the “stabilization of UMP kinase activity on storage (in words)” value (“stabilization of UMP kinase activity” below) [2] is reported as “ineffective”.

In the case of `O=c1ccn([C@@H]2O[C@H](COP(=O)(O)O)[C@@H](O)[C@H]2O)c(=O)[nH]1` [UMP], the “UMP concentration at which rates were maximal” value ([1]; absence of GTP, ATP 1 mM, rates decline at higher UMP) is reported as 50 to 70 µM, the Km ([1]; absence of GTP, ATP constant (1 mM), read-out: Km for UMP) is reported as about 8 µM and the “UMP concentration at which saturation was attained” value ([1]; presence of GTP, ATP 1 mM) is reported as 0.2 mM.

In the case of `O=c1ccn([C@@H]2O[C@H](COP(=O)(O)OP(=O)(O)OP(=O)(O)O)[C@@H](O)[C@H]2O)c(=O)[nH]1` [UTP], the “half maximal inactivation temperature” value ([3]; in the presence of UTP) is reported as “over 70 °C”, the “effect of UTP on UMP kinase activity (in words)” value [1] is reported as “antagonized the effect of GTP; also recorded: inhibits” and the IC50 ([1]; at lower concentration of UMP (50 μM), read-out: I50 of UTP inhibition) is reported as 50 µM. The Km ([1]; presence of GTP, ATP 1 mM, without inhibition by excess of UMP, read-out: apparent Km for UTP) was 30 µM, the Tm [4] was 67 °C and the “stabilization of UMP kinase activity” value [2] was “stabilized considerably”.

`Nc1ncnc2c1ncn2[C@@H]1O[C@H](COP(=O)(O)OP(=O)(O)OP(=O)(O)O)[C@@H](O)[C@H]1O` [ATP] showed a Km ([1]; ATP varied, absence or presence of GTP (0.5 mM), UMP 1 mM, read-out: apparent Km for ATP) of 900 µM.

In the case of `Nc1nc2c(ncn2[C@@H]2O[C@H](COP(=O)(O)O)[C@@H](O)[C@H]2O)c(=O)[nH]1` [GMP], the “activation of UMP kinase … (in words)” value [1] is given as “totally ineffective; also recorded: insensitive” and the “activation of E. coli UMP kinase (in words)” value [5] is given as “significant activation; also recorded: activated”.

For `Nc1nc2c(ncn2[C@@H]2O[C@H](COP(=O)(O)OP(=O)(O)NP(=O)(O)O)[C@@H](O)[C@H]2O)c(=O)[nH]1` [GMP-PNP], the “activation of UMP kinase … (in words)” value [1] was “can activate at significant rates”.

For `Nc1nc2c(ncn2[C@@H]2O[C@@H]3COP(=O)(O)O[C@H]3[C@H]2O)c(=O)[nH]1` [cGMP], the “best activator (in words)” value [6] is listed as “highest activation and affinity”, the “nucleotide concentration at which maximal activation is attained” value [6] is listed as 20 µM and the “activation of E. coli UMP kinase (in words)” value [5] is listed as “significant activation”.

In the case of `Nc1nc2c(ncn2[C@@H]2O[C@H](COP(=O)(O)OP(=O)(O)OP(=O)(O)O)[C@@H](O)[C@H]2O)c(=O)[nH]1` [GTP], the “activation of UMP kinase (fold)” value ([1]; 2 mM ATP and 1 mM UTP) is reported as “ten fold activation”, the EC50 ([1]; 2 mM ATP and 1 mM UTP, read-out: half maximum activation concentration) is reported as 100 µM and the “activity of UMP kinase in the absence of GTP relative to presence” value ([1]; absence of GTP) is reported as “twenty times lower”. The “degree of activation by GTP (factor)” value [6] was 3 and the “degree of activation by GTP (factor)” value [7] was 2.

For `Nc1nc2c(ncn2[C@@H]2O[C@H](CO)[C@@H](O)[C@H]2O)c(=O)[nH]1` [guanosine], the “activation of E. coli UMP kinase (in words)” value [5] is given as “significant activation”.

For `Nc1ncnc2c1ncn2[C@H]1C[C@H](O)[C@@H](COP(=O)(O)OP(=O)(O)OP(=O)(O)O)O1` [dATP], the phosphate donor ability ([1]; compared with ATP) was “as good as ATP as phosphate donor”.

In the case of `O=C(O)CN(CCN(CC(=O)O)CC(=O)O)CC(=O)O` [EDTA], the “stabilization of UMP kinase activity” value [2] is reported as “ineffective”.

B1: UMP kinase from B. subtilis: recombinant pyrH gene product of B. subtilis overproduced in E. coli, hexamer (protein)
chain: T1 sequence (O31749 1-240)
In the case of B1, the “half maximal inactivation temperature” value ([3]; in the absence of UTP) is reported as 42 °C, the “specific activity of the recombinant enzyme” value ([1]; 2 mM ATP, 1 mM UMP) is reported as 25 units/mg of protein and the “specific activity of purified recombinant protein” value ([1]; "standard" assay conditions) is reported as 26 U/mg of protein. For the same molecule, the “specific activity of the purified enzyme” value ([1]; in the presence of GTP) was 25 μmol/min^−1/mg of protein^−1, the “initial UMP kinase activity recovered after storage” value ([2]; after 24 h, crude extract without UTP, room temperature, +4° C. or frozen) was 15% and the “stability in the absence of UTP (in words)” value ([2]; irrespective of storage temperature (+4° C., −20° C. or −80° C.)) was “unstable in the absence of the nucleotide”.

B2: UMP kinase from E. coli: comparison enzyme, bacterial UMP kinase from E. coli (protein, UniProt P0A7E9 2-241, looked up)
Uridylate kinase: ATNAKPVYKRILLKLSGEALQGTEGFGIDASILDRMAQEIKELVELGIQVGVVIGGGNLFRGAGLAKAGMNRVVGDHMGMLATVMNGLAMRDALHRAYVNARLMSAIPLNGVCDSYSWAEAISLLRNNRVVILSAGTGNPFFTTDSAACLRGIEIEADVVLKATKVDGVFTADPAKDPTATMYEQLTYSEVLEKELKVMDLAAFTLARDHKLPIRVFNMNKPGALRRVVMGEKEGTLITE
In the case of B2, the specific activity [8] is reported as 150 μmol/min^−1/mg of protein^−1.
